Here are results for 23 compounds from patent publication US9580411B2, “Substituted sulfonamide compounds” (Hoffmann-La Roche Inc., priority 2012, dated 2017).

The pIC50 is the IC50 on a negative log10 scale, so that one unit is a factor of ten.

pIC50: −log10 of the molar value.

Sequence of hTRPA1 (O75762 whole entry): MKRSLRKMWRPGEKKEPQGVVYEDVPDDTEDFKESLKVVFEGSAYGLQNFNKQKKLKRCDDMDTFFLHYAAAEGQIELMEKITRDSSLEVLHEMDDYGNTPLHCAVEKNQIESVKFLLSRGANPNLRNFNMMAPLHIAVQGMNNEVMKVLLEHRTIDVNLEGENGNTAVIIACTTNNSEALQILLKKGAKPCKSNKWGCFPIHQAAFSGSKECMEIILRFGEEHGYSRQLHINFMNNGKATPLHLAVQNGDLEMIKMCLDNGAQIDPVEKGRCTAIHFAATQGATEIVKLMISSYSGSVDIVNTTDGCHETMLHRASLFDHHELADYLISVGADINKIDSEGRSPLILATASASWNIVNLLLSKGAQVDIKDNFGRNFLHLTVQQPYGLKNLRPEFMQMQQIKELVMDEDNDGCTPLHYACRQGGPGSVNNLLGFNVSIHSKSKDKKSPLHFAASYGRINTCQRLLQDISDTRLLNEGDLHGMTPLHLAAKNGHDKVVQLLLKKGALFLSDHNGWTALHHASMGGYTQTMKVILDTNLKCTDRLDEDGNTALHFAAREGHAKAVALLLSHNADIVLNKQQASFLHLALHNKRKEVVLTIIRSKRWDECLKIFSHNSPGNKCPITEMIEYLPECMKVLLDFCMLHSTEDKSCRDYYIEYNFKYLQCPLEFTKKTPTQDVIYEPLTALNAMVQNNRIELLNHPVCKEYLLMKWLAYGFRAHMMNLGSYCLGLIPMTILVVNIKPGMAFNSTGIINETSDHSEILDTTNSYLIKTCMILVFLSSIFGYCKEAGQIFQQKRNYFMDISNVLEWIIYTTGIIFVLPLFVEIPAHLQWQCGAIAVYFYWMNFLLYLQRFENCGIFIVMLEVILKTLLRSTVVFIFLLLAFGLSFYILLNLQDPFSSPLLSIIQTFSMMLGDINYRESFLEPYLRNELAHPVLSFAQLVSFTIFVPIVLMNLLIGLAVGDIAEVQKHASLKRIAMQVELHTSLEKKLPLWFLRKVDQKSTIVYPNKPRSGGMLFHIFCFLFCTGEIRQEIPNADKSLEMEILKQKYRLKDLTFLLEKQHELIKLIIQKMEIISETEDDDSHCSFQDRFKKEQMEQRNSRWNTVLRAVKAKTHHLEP

This experiment deals with hTRPA1 (Homo sapiens (Human), UniProt O75762). Put plainly: Dose response calcium flux assay (FLIPR), ChanTest hTRPA1-CHO stably transfected cell line. The experiment is classed as cell-based. The conditions noted are these: CHO-K1 Tet-On human TRPA1 cells, cinnamaldehyde agonist (final 100 uM). On the procedure:
IC50 Determinations of Exemplified Compounds Dose Response Assay: Chan Test hTRPA1-CHO Stably Transfected Cell Line
CHO-K1 Tet-On_HOMSA_TRPA1_Clone_20
Chinese Hamster Ovary cells, inducible expression
• Ham's F-12 with 10% tetracycline-free FBS • 1× penicillin-streptomycin • 1× glutamax • 0.01 mg/ml Blasticidin • 0.40 mg/ml Zeocin • The cell line doubling rate was ˜15 hours. […] Experiments were run at 24 hours post induction. Plating Conditions CHOK1/TRPA1 Cells: • Harvested cells with 0.025% trypsin/EDTA. • Resuspended cells in growth media without selection antibiotics. • Measured cell density and diluted to 2.4×10^5 cells/ml in media containing 1 ug/ml Doxycycline Plate 25 ul/well into 384 well black/clear tissue culture-treated plates. • Incubated overnight at 37° C. Calcium Flux Assay: Day of Assay: Reagents: • Replacement Buffer: Hank's Balanced Salt Solution, 20 mM HEPES along with 0.005% BSA and 2× Probenecid • Dye Loading Buffer: Cal-3 NW Calcium dye was prepared by dissolving the contents of one vial with […] Hank's Balanced Salt Solution containing 20 mM HEPES. • Control compounds for CHOK1/TRPA1 cells: AP-18, stock 10 mM, prepare 3.5× compound dilution in a Compound Buffer (HBSS/20 mM HEPES/0.005% BSA)—final concentration 10 uM. • Preparation of Cinnamaldehyde (agonist addition): FW=132.16 • Specific gravity=1.046 gm/cc • 1.32 gm/1.046 gm/cc=1.26 ml of stock • Add 1.74 ml DMSO=3.3 M stock • Working solution 4.5× (final 100 uM in Compound Buffer: HBSS/20 mM HEPES/0.005% BSA) • Compounds dilutions were prepared from 5 or 10 mM stock (100% DMSO): • Adjustments of volumes and concentrations were made at time of titration to reflect desired final assay concentrations. • Compounds were tested at either 20 μM three folds dilution 11 steps out or 30 μM two folds dilution 11 steps out. • 3 μl of diluted compound were transferred into Weidmann 384-well plate in duplicates side-by-side. • Compound plates were resuspended with 100 ul of HBSS/20 mM HEPES/0.005% BSA buffer (Compound Buffer): • column 1A-H: buffer/DMSO (bk) • column 2A-H: AP-18 (control antagonist for CHOK1 TRPA1 cells) • column 1I-P: ATP (control for CHOK1 teton cells) • column 2 I-P: 2APB (control antagonist for CHOK1/TRPM8 cells). Growth media was removed from the cell plates (20 ul) and 20 ul of the Replacement Buffer was added followed by addition of 25 ul of diluted dye. All three steps were performed using a Plate Washer BioTek 407. The plates were then incubated for 30′ at RT.
After incubation, both the cell and compound plates were brought to the FLIPR and 20 ul of the diluted compounds/antagonist/bk were transferred to the cell plates by the FLIPR. Plates were then incubated for 30′ at room temperature. After 30′ incubation, plates were returned to the FLIPR and 20 ul of 4.5× Cinnamaldehyde was added to the cell plates. During the compound addition as well as agonist addition, fluorescence readings were taken simultaneously from all 384 wells of the cell plate every 1.5 seconds. Five readings were taken to establish a stable baseline, then 20 ul of sample was rapidly (30 ul/sec) and simultaneously added to each well of the cell plate. The fluorescence was continuously monitored before, during and after sample/agonist addition for a total elapsed time of 100 seconds (compound addition) and 120 seconds (agonist addition). Responses (increase in peak fluorescence) in each well following agonist addition was determined. The initial fluorescence reading from each well, prior to ligand stimulation, was used a zero baseline value for the data from that well.
(Calcium assays in cells follow changes in intracellular calcium, usually with a dye or a luminescent sensor.)
With `CN(CC(=O)NCc1cccc(-c2ccc(C(F)(F)F)cc2)c1)S(=O)(=O)c1ccc(F)cc1` [Example 1, 2-[(4-Fluoro-benzenesulfonyl)-methyl-amino]-N-(4′-trifluoromethyl-biphenyl-3-ylmethyl)-acetamide], the pIC50 is 7.09.
Next, `C[C@@H](C(=O)NCc1cccc(-c2ccc(C(F)(F)F)cc2)c1)N(C)S(=O)(=O)c1ccc(F)cc1` [Example 2, (S)-2-[(4-Fluoro-benzenesulfonyl)-methyl-amino]-N-(4′-trifluoromethyl-biphenyl-3-ylmethyl)-propionamide]: 7.46; `O=C(CNS(=O)(=O)c1ccc(F)cc1)NCc1cccc(-c2ccc(C(F)(F)F)cc2)c1` [Example 3, 2-(4-Fluoro-benzenesulfonylamino)-N-(4′-trifluoromethyl-biphenyl-3-ylmethyl)-acetamide]: 5.97.
For `C[C@H](C(=O)NCc1cccc(-c2ccc(C(F)(F)F)cc2)c1)N(C)S(=O)(=O)c1ccc(F)cc1` [Example 4, (R)-2-[(4-Fluoro-benzenesulfonyl)-methyl-amino]-N-(4′-trifluoromethyl-biphenyl-3-ylmethyl)-propionamide] the value was 5.95.
For `CC(C)[C@@H](C(=O)NCc1cccc(-c2ccc(C(F)(F)F)cc2)c1)N(C)S(=O)(=O)c1ccc(F)cc1` [Example 5, (S)-2-[(4-Fluoro-benzenesulfonyl)-methyl-amino]-3-methyl-N-(4′-trifluoromethyl-biphenyl-3-ylmethyl)-butyramide] the value was 5.79; for `CC(C)[C@H](C(=O)NCc1cccc(-c2ccc(C(F)(F)F)cc2)c1)N(C)S(=O)(=O)c1ccc(F)cc1` [Example 6, (R)-2-[(4-Fluoro-benzenesulfonyl)-methyl-amino]-3-methyl-N-(4′-trifluoromethyl-biphenyl-3-ylmethyl)-butyramide], 5.95; for `CN(C(C)(C)C(=O)NCc1cccc(-c2ccc(C(F)(F)F)cc2)c1)S(=O)(=O)c1ccc(F)cc1` [Example 7, 2-[(4-Fluoro-benzenesulfonyl)-methyl-amino]-2-methyl-N-(4′-trifluoromethyl-biphenyl-3-ylmethyl)-propionamide], 6.10.
With `CN(CC(=O)NCc1ccc(F)c(-c2ccc(C(F)(F)F)cc2)c1)S(=O)(=O)c1ccc(F)cc1` [Example 8, 2-[(4-Fluoro-benzenesulfonyl)-methyl-amino]-N-(6-fluoro-4′-trifluoromethyl-biphenyl-3-ylmethyl)-acetamide], the pIC50 was 6.82.
Take `CN(CC(=O)NCc1cccc(-c2ccc(C(F)(F)F)cc2)c1F)S(=O)(=O)c1ccc(F)cc1` [Example 9, 2-[(4-Fluoro-benzenesulfonyl)-methyl-amino]-N-(2-fluoro-4′-trifluoromethyl-biphenyl-3-ylmethyl)-acetamide]: the pIC50 was 5.82.
As to `CN(CC(=O)NCc1ccc(-c2ccc(C(F)(F)F)cc2)cc1)S(=O)(=O)c1ccc(F)cc1` [Example 10, 2-[(4-Fluoro-benzenesulfonyl)-methyl-amino]-N-(4′-trifluoromethyl-biphenyl-4-ylmethyl)-acetamide], the pIC50 is 5.32.
`CN(CC(=O)NCc1cc(F)cc(-c2ccc(C(F)(F)F)cc2)c1)S(=O)(=O)c1ccc(F)cc1` [Example 11, 2-[(4-Fluoro-benzenesulfonyl)-methyl-amino]-N-(5-fluoro-4′-trifluoromethyl-biphenyl-3-ylmethyl)-acetamide]: the pIC50 was 6.89.
Next, `CN(CC(=O)NCc1cc(-c2ccc(C(F)(F)F)cc2)ccc1F)S(=O)(=O)c1ccc(F)cc1` [Example 12, 2-[(4-Fluoro-benzenesulfonyl)-methyl-amino]-N-(4-fluoro-4′-trifluoromethyl-biphenyl-3-ylmethyl)-acetamide]: 7.32; `O=C(CN(CC(F)(F)F)S(=O)(=O)c1ccc(F)cc1)NCc1cccc(-c2ccc(C(F)(F)F)cc2)c1` [Example 13, 2-[(4-fluoro-benzenesulfonyl)-(2,2,2-trifluoro-ethyl)-amino]-N-(4′-trifluoromethyl-biphenyl-3-ylmethyl)-acetamide]: 6.59; `CCN(CC(=O)NCc1ccc(F)c(-c2ccc(C(F)(F)F)cc2)c1)S(=O)(=O)c1ccc(F)cc1` [Example 14, 2-[Ethyl-(4-fluoro-benzenesulfonyl)-amino]-N-(6-fluoro-4′-trifluoromethyl-biphenyl-3-ylmethyl)-acetamide]: 7.43.
Take `CCN(CC(=O)NCc1cc(F)cc(-c2ccc(C(F)(F)F)cc2)c1)S(=O)(=O)c1ccc(F)cc1` [Example 15, 2-[Ethyl-(4-fluoro-benzenesulfonyl)-amino]-N-(5-fluoro-4′-trifluoromethyl-biphenyl-3-ylmethyl)-acetamide]: the pIC50 is 7.55.
For `CCN(CC(=O)NCc1cc(-c2ccc(C(F)(F)F)cc2)ccc1F)S(=O)(=O)c1ccc(F)cc1` [Example 16, 2-[Ethyl-(4-fluoro-benzenesulfonyl)-amino]-N-(4-fluoro-4′-trifluoromethyl-biphenyl-3-ylmethyl)-acetamide] the value was 7.62; for `CCN(CC(=O)NCc1ccc(-c2ccc(C(F)(F)F)cc2)cc1)S(=O)(=O)c1ccc(F)cc1` [Example 17, 2-[Ethyl-(4-fluoro-benzenesulfonyl)-amino]-N-(4′-trifluoromethyl-biphenyl-4-ylmethyl)-acetamide], 5.32.
For the compound `CCN(CC(=O)NCc1ccc(-c2cccc(C(F)(F)F)c2)cc1)S(=O)(=O)c1ccc(F)cc1` [Example 18, 2-[Ethyl-(4-fluoro-benzenesulfonyl)-amino]-N-(3′-trifluoromethyl-biphenyl-4-ylmethyl)-acetamide], the pIC50 is 5.32.
Consider `O=C(CN(CCO)S(=O)(=O)c1ccc(F)cc1)NCc1cccc(-c2ccc(C(F)(F)F)cc2)c1` [Example 19, 2-[(4-Fluoro-benzenesulfonyl)-(2-hydroxy-ethyl)-amino]-N-(4′-trifluoromethyl-biphenyl-3-ylmethyl)-acetamide], for which the pIC50 is 7.01.
Next, `CC(O)CN(CC(=O)NCc1cccc(-c2ccc(C(F)(F)F)cc2)c1)S(=O)(=O)c1ccc(F)cc1` (centres unmarked) [Example 20, 2-[(4-Fluoro-benzenesulfonyl)-(2-hydroxy-propyl)-amino]-N-(4′-trifluoromethyl-biphenyl-3-ylmethyl)-acetamide]: 6.80.
For `CN(CC(=O)NCc1cc(-c2ccc(C(F)(F)F)cc2)ncn1)S(=O)(=O)c1ccc(F)cc1` [Example 21, 2-[(4-Fluoro-benzenesulfonyl)-methyl-amino]-N-[6-(4-trifluoromethyl-phenyl)-pyrimidin-4-ylmethyl]-acetamide] the value was 7.01; for `O=C(CN(C1CC1)S(=O)(=O)c1ccc(F)cc1)NCc1cccc(-c2ccc(C(F)(F)F)cc2)c1` [Example 22, 2-[Cyclopropyl-(4-fluoro-benzenesulfonyl)-amino]-N-(4′-trifluoromethyl-biphenyl-3-ylmethyl)-acetamide], 6.72; for `CCN(CC(=O)NCc1cccc(-c2ccc(C(F)(F)F)cc2)c1)S(=O)(=O)c1ccc(F)cc1` [Example 23, 2-[Ethyl-(4-fluoro-benzenesulfonyl)-amino]-N-(4′-trifluoromethyl-biphenyl-3-ylmethyl)-acetamide], 7.54.
